pIC50: −log10 of the molar value.
Assays:
[1] = target: T1, collagenase (MMP-1) (Homo sapiens, UniProt P03956); experiment: MMP-1 enzyme inhibition assay (coumarin-labelled peptide substrate); assay type: biochemical
T1 sequence (P03956 100-469): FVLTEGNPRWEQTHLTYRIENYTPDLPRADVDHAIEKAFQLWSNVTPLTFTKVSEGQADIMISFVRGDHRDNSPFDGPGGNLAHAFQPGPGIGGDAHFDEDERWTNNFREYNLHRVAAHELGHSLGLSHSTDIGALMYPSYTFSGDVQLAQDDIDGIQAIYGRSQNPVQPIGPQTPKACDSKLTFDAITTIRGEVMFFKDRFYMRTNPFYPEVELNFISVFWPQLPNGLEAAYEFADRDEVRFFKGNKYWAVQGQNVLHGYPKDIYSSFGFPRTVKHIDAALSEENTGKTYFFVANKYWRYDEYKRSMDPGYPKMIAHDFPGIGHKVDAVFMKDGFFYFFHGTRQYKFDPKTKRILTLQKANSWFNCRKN
Method: (§1) Stock solutions were made up as follows: Assay Butter: 100 mM Tris-HCl pH 7.6 containing 100 mM NaCl, 10 mM CaCl2, and 0.05% Brij 35.
(§2) Substrate: 0.4 mM McaPLGLDpaAR (from Bachem) (0.437 mg/ml) stock solution in 100% DMSO (stored at −20° C.). Dilute to 8 μM in assay butter.
(§3) Test Compounds were prepared initially as 10 mM compound solution in 100% DMSO, diluted to 1 mM in 100% DMSO, then serially diluted 3-fold in 100% DMSO across columns 1-10 of a 96-well microtitre plate Assay concentration range, 100 μM (column 1) to 5.1 nM (column 10).
(§4) The assay was performed in a total volume of 100 μL per well in 96-well microtitre plates. Activated enzyme (20 μL) was added to the wells followed by 20 μL of assay butter. Appropriate concentrations of test compounds dissolved in 10 μL of DMSO were then added followed by 50 μL of McaPLGLDpaAR (8 μM, prepared by dilution of DMSO stock in assay butter). For each assay ten concentrations of test compound were examined in duplicate. Control wells lack either enzyme or test compound. The reactions were incubated at 37° C. for 2 hours. The fluorescence at 405 nm was measured immediately with an SLT Fluostar fluorometer (SL T Labinstruments GmbH, Grödig, Austria) using 320 nm excitation, without stopping the reaction.
(§5) The effect of the test compound was determined from the dose response curve generated by the 10 duplicate concentrations of inhibitor. […]

[2] = target: T2, gelatinase A (MMP-2) (Homo sapiens, UniProt P08253); experiment: MMP-2 enzyme inhibition assay (coumarin-labelled peptide substrate); assay type: biochemical
T2 sequence (P08253 110-660): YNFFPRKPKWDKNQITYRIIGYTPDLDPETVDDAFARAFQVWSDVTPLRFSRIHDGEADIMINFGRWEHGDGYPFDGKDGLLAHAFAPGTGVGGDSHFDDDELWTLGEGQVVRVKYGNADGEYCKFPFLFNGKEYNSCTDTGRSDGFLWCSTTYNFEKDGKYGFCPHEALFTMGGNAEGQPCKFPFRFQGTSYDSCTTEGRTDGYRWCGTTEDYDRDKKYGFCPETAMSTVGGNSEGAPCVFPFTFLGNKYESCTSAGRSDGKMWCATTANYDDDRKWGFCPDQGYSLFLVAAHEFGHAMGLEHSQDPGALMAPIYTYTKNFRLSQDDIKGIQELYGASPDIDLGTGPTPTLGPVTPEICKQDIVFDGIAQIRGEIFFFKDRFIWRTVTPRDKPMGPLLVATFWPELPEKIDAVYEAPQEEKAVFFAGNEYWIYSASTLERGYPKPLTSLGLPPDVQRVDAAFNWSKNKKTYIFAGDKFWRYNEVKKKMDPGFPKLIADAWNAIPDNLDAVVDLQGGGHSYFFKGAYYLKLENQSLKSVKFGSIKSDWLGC
Method: as §1, §2, §3, §4, §5

[3] = target: metalloelastase (MMP-12) (Homo sapiens, UniProt P39900); experiment: MMP-12 enzyme inhibition assay (coumarin-labelled peptide substrate); assay type: biochemical
Method: as §1, §2, §3, §4, §5

[4] = system: IL-2-induced peritoneal recruitment of lymphocytes; experiment: IL-2-induced peritoneal recruitment of lymphocytes; assay type: in vivo, C3H/HEN mice; details: mice, 3 mg/kg p.o., 15 min prior to IL-2; cells collected 24 h after IL-2
Method: Administration of IL-2 intraperitoneally causes migration of lymphocytes into the intraperitoneal cavity. This is a model for the cellular migration that occurs during inflammation.
C3H/HEN mice (Elevage Janvier, France) were intraperitoneally injected with IL-2 (20 μg/kg, in saline).
Compounds of the invention were suspended in 0.5% carboxymethylcellulose (CMC)/0.25% tween-20 and were administered by s.c. or p.o. route (10 ml/kg) 15 min prior to administration of IL-2.
Twenty-four hours after administration of IL-2, peritoneal white blood cells were collected by 3 successive lavages of the peritoneal cavity with 5 ml phosphate buffered saline (PBS)-1 mM EDTA (+4° C.). The suspension was centrifuged (1700 g×10 min at +4° C.). The resulting pellet was suspended in 1 ml PBS-1 mM EDTA.
Lymphocytes were identified and counted using a Beckman/Coulter counter.
The animals were divided into 6 groups (6 mice each group):
Inhibition of lymphocyte recruitment was calculated as follows:
Where Ly 1=Number of lymphocytes in group 1 (E3/μl), Ly 2=Number of lymphocytes in group 2 (E3/μl), Ly X=Number of lymphocytes in group X (3-5) (E3/μl).

Sequence of metalloelastase (MMP-12) (P39900 106-470): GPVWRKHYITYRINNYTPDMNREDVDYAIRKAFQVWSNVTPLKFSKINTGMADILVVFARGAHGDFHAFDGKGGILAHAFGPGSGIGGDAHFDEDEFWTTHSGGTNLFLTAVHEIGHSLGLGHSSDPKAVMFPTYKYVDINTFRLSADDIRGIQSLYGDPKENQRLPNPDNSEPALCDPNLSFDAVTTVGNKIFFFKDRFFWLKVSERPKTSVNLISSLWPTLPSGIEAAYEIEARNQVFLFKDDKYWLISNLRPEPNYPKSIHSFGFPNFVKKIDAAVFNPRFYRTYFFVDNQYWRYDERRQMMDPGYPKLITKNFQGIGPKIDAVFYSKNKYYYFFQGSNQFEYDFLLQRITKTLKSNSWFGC

Row | pIC50 [1] | pIC50 [2] | pIC50 [3] | Compound | % inhibition of IL-2-induced peritoneal recruitment of lymphocytes [4] [%]
1 | < 5.30 | 8.05 | 8.10 | CC(C)C[C@@H](CN(O)C=O)C(=O)N1CCN(c2ccc(-c3ccccc3)cc2)CC1 [Example 2, {(2S)-2-[(4-biphenyl-4-ylpiperazin-1-yl)carbonyl]-4-methylpentyl}hydroxyformamide] | 
2 | < 5.30 | 7.89 | 7.17 | COc1ccc(N2CCN(C(=O)[C@@H](CC(C)C)CN(O)C=O)CC2)cc1 [Example 1, hydroxy((2S)-2-{[4-(4-methoxyphenyl)piperazin-1-yl]carbonyl}-4-methylpentyl)formamide] | 35 ± 10
